These results are taken from ChEMBL document CHEMBL1800049, “Aryl 1,4-diazepane compounds as potent and selective CB2 agonists: optimization of drug-like properties and target independent parameters” (Bioorg Med Chem Lett, 2011).

Data set [1] is described as follows: Permeability from apical to basolateral side of human Caco2 cells at 10 uM after […] by HPLC-MS/MS analysis. Type of data set: ADME, cell-based. The conditions noted are these: Caco-2, read-out: permeability.
Data set [2] is described as follows: Permeability from basolateral to apical side of human Caco2 cells at 10 uM after […] by HPLC-MS/MS analysis. The conditions noted are these: Caco-2, read-out: permeability. In kind it is ADME, cell-based. A general note: Passage across Caco-2 layers is used to estimate intestinal permeability.
A short description of data set [3]: Oral bioavailability in cynomolgus monkey. In kind it is ADME, organism-based, Macaca fascicularis. To be noted: in vivo.

Take `O=C(C1CCOCC1)N1CCCN(c2nc(C(F)(F)F)c(Cl)s2)CC1`: the Papp A→B at […], 10 µM in data set [1] came out at 53 ×10⁻⁶ cm/s. Besides, the Papp B→A at […], 10 µM in data set [2] is 70 ×10⁻⁶ cm/s.
For the compound `CC(C)(C)c1ccc2oc(N3CCCN(C(=O)C4CCOCC4)CC3)nc2c1`, the Papp A→B at […], 10 µM in data set [1] amounted to 49 ×10⁻⁶ cm/s. In addition, the Papp B→A at […], 10 µM in data set [2] is 64 ×10⁻⁶ cm/s.
As to `O=C(C1CCOCC1)N1CCCN(c2nc(-c3ccccc3)ns2)CC1`, the Papp A→B at […], 10 µM in data set [1] was 67 ×10⁻⁶ cm/s. The Papp B→A at […], 10 µM in data set [2] turned out to be 61 ×10⁻⁶ cm/s.
A word on the bioavailability: it is the share of a dose that reaches the circulation, judged against a reference dose that is usually intravenous. Consider `CC(C)(C)c1cc(NC(=O)N2CCCN(C(=O)C3CCOCC3)CC2)no1`, for which the Papp A→B at […], 10 µM in data set [1] is 7 ×10⁻⁶ cm/s. Besides, the Papp B→A at […], 10 µM in data set [2] came to 42 ×10⁻⁶ cm/s. Moreover, in data set [3], the bioavailability came out at 3%.
As for `O=C(C1CCOCC1)N1CCCN(c2nc3ccc(Cl)cc3s2)CC1`, in data set [1], the Papp A→B at […], 10 µM was 62 ×10⁻⁶ cm/s. Further, the Papp B→A at […], 10 µM in data set [2] was determined as 71 ×10⁻⁶ cm/s.
